Results published in ChEMBL document CHEMBL3045165, “3D-QSAR study of multi-target-directed AchE inhibitors based on autodocking” (Med Chem Res, 2012).

target: Acetylcholinesterase (Homo sapiens, UniProt P22303); test: Inhibition of AChE (unknown origin) using acetylthiocholine chloride as substrate after 15 min by Ellman's method
Sequence (P22303 whole entry): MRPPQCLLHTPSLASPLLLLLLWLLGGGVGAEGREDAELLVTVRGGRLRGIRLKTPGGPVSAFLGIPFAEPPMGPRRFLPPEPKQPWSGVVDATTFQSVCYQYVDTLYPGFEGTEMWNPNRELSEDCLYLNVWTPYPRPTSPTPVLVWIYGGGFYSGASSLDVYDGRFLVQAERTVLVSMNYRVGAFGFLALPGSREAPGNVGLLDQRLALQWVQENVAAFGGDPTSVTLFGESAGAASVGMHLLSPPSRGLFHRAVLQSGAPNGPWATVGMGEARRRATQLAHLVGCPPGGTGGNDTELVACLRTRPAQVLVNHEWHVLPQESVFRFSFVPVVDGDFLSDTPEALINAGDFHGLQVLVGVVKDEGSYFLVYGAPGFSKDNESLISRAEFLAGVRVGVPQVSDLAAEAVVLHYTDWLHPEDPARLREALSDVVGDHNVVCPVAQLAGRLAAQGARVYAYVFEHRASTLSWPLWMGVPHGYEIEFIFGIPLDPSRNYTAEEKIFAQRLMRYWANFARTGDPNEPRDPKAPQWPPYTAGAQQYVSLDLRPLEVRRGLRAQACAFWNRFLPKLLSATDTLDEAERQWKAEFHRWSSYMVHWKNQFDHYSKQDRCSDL

| Compound | IC50 |
| --- | --- |
| CCOC(=O)C1=C(C)Oc2nc3c(c(N)c2[C@H]1c1cccc([N+](=O)[O-])c1)CCCC3 | 1.91 µM |
| CCOC(=O)C1=C(C)Oc2nc3c(c(N)c2[C@H]1c1ccccc1)CCC3 | 3.89 µM |
| CCOC(=O)C1=C(C)Oc2nc3c(c(N)c2[C@H]1c1cccnc1OC)CCCC3 | 3.89 µM |
| CCOC(=O)C1=C(C)Oc2nc3c(c(N)c2[C@H]1c1cccnc1Br)CCCC3 | 1.86 µM |
| CCOC(=O)C1=C(C)Oc2nc3c(c(N)c2[C@H]1c1cccnc1Cl)CCCC3 | 2.14 µM |
| CC1(C)CC(=O)C2=C(C1)Oc1nc3c(c(N)c1[C@H]2c1ccccc1)CCCC3 | 49 µM |
| CC1(C)CC(=O)C2=C(C1)Oc1nc3c(c(N)c1[C@H]2c1ccc(F)cc1)CCCC3 | 69.2 µM |
| CC1(C)CC(=O)C2=C(C1)Oc1nc3c(c(N)c1[C@H]2c1ccccc1C(F)(F)F)CCCC3 | 17.8 µM |
| CC1(C)CC(=O)C2=C(C1)Oc1nc3c(c(N)c1[C@H]2c1cccc([N+](=O)[O-])c1)CCCC3 | 12 µM |
| CC1(C)CC(=O)C2=C(C1)Oc1nc3c(c(N)c1[C@H]2c1ccc([N+](=O)[O-])cc1)CCCC3 | 93.3 µM |
| Cc1ccc([C@H]2C3=C(CC(C)(C)CC3=O)Oc3nc4c(c(N)c32)CCCC4)cc1 | 51.3 µM |
| COc1ccccc1[C@H]1C2=C(CC(C)(C)CC2=O)Oc2nc3c(c(N)c21)CCCC3 | 7.08 µM |
| COc1cccc([C@H]2C3=C(CC(C)(C)CC3=O)Oc3nc4c(c(N)c32)CCCC4)c1 | 21.4 µM |
| COc1ccc([C@H]2C3=C(CC(C)(C)CC3=O)Oc3nc4c(c(N)c32)CCCC4)cc1 | 40.7 µM |
| CCOC(=O)C1=C(C)Nc2nc3c(c(N)c2[C@H]1c1ccccc1)CCCC3 | 0.0794 µM |
| CCOC(=O)C1=C(C)Nc2nc3c(c(N)c2[C@H]1c1ccc([N+](=O)[O-])cc1)CCCC3 | 0.603 µM |
| CCOC(=O)C1=C(C)Nc2nc3c(c(N)c2[C@H]1c1ccc(C)cc1)CCCC3 | 0.0912 µM |
| CC1(C)CC(=O)C2=C(C1)Nc1nc3c(c(N)c1[C@H]2c1ccccc1)CCCC3 | 0.324 µM |
| CC1(C)CC(=O)C2=C(C1)Nc1nc3c(c(N)c1[C@H]2c1ccc(F)cc1)CCCC3 | 0.537 µM |
| Cc1ccc([C@H]2C3=C(CC(C)(C)CC3=O)Nc3nc4c(c(N)c32)CCCC4)cc1 | 0.229 µM |
| COc1ccc([C@H]2C3=C(CC(C)(C)CC3=O)Nc3nc4c(c(N)c32)CCCC4)cc1 | 0.219 µM |
| CC1(C)CC(=O)C2=C(C1)Nc1nc3c(c(N)c1[C@H]2c1ccncc1)CCCC3 | 0.603 µM |

| Compound | IC50 |
| --- | --- |
| CCOC(=O)c1c(C)nc2nc3c(c(N)c2c1-c1ccc(C)cc1)CCCCC3 | 12.9 µM |
| CCOC(=O)c1c(C)nc2nc3c(c(N)c2c1-c1ccccc1OC)CCCCC3 | 21.9 µM |
| CCOC(=O)c1c(C)nc2nc3c(c(N)c2c1-c1ccc(Cl)cc1)CCCCC3 | 19.1 µM |
| CCOC(=O)c1c(C)nc2nc3c(c(N)c2c1-c1cccc([N+](=O)[O-])c1)CCCCC3 | 14.1 µM |
| CCOC(=O)c1c(C)nc2nc3c(c(N)c2c1-c1ccccc1)CCCCCC3 | 17 µM |
| CCOC(=O)c1c(C)nc2nc3c(c(N)c2c1-c1ccc(OC)cc1)CCCCCC3 | 17 µM |
| CCOC(=O)C1=C(C)Oc2nc3c(c(N)c2[C@H]1c1ccncc1)CCC3 | 6.61 µM |
| CCOC(=O)C1=C(C)Oc2nc3c(c(N)c2[C@H]1c1cccs1)CCC3 | 27.5 µM |
| CCOC(=O)C1=C(C)Oc2nc3c(c(N)c2[C@H]1c1ccc(OC)cc1)CCCC3 | 0.871 µM |
| CCOC(=O)C1=C(C)Oc2nc3c(c(N)c2[C@H]1c1ccncc1)CCCC3 | 3.02 µM |
| CCOC(=O)C1=C(C)Oc2nc3c(c(N)c2[C@H]1c1cccnc1)CCCC3 | 7.08 µM |
| CCOC(=O)C1=C(C)Oc2nc3c(c(N)c2[C@H]1c1cccs1)CCCC3 | 24.5 µM |
| CCOC(=O)C1=C(C)Oc2nc3c(c(N)c2[C@H]1c1ccco1)CCCC3 | 1.7 µM |
| CCOC(=O)C1=C(C)Oc2nc3c(c(N)c2[C@H]1c1ccncc1)CCCCC3 | 8.51 µM |
| CCOC(=O)C1=C(C)Oc2nc3c(c(N)c2[C@H]1c1cccnc1)CCCCC3 | 32.4 µM |
| CCOC(=O)C1=C(C)Oc2nc3c(c(N)c2[C@H]1c1cccs1)CCCCC3 | 14.5 µM |
| CCOC(=O)C1=C(C)Oc2nc3c(c(N)c2[C@H]1c1cccc(OC)c1)CCC3 | 24 µM |
| CCOC(=O)C1=C(C)Oc2nc3c(c(N)c2[C@H]1c1ccc(OC)c(OC)c1)CCC3 | 26.9 µM |
| CCOC(=O)C1=C(C)Oc2nc3c(c(N)c2[C@H]1c1cccc(OC)c1)CCCC3 | 7.76 µM |
| CCOC(=O)C1=C(C)Oc2nc3c(c(N)c2[C@H]1c1ccc(OC)c(OC)c1)CCCC3 | 4.57 µM |
| CCOC(=O)C1=C(C)Oc2nc3c(c(N)c2[C@H]1c1cccc(OC)c1)CCCCC3 | 12.9 µM |
| CCOC(=O)C1=C(C)Oc2nc3c(c(N)c2[C@H]1c1ccccc1OC)CCCCC3 | 20.9 µM |

| Compound | IC50 |
| --- | --- |
| CCOC(=O)C1=C(C)Oc2nc3c(c(N)c2[C@H]1c1ccc(OC)c(OC)c1)CCCCC3 | 33.1 µM |
| CCOC(=O)C1=C(C)Oc2nc3c(c(N)c2[C@H]1c1ccccc1)CCCC3 | 1.55 µM |
| CCOC(=O)C1=C(C)Oc2nc3c(c(N)c2[C@H]1c1ccc(C)cc1)CCCC3 | 1.82 µM |
| CCOC(=O)C1=C(C)Oc2nc3c(c(N)c2[C@H]1c1ccc(Cl)cc1)CCCC3 | 1.95 µM |
| CCOC(=O)C1=C(C)Oc2nc3c(c(N)c2[C@H]1c1ccc(C#N)cc1)CCCC3 | 3.47 µM |
| CCOC(=O)c1c(C)nc2nc3c(c(N)c2c1-c1ccc(OC)cc1)CCCCC3 | 1.35 µM |
| CCOC(=O)c1c(C)nc2nc3c(c(N)c2c1-c1ccc(OC)c(OC)c1)CCCC3 | 1.29 µM |
| CCOC(=O)c1c(C)nc2nc3c(c(N)c2c1-c1ccc(F)cc1)CCCC3 | 0.708 µM |
| CCOC(=O)c1c(C)nc2nc3c(c(N)c2c1-c1ccc(F)cc1)CCCCC3 | 5.37 µM |
| CCOC(=O)c1c(C)nc2nc3c(c(N)c2c1-c1ccc(Cl)cc1)CCCC3 | 1.29 µM |
| CCOC(=O)c1c(C)nc2nc3c(c(N)c2c1-c1ccc(OC)c(OC)c1)CCCCC3 | 6.46 µM |
| Cc1nc2nc3c(c(N)c2c(-c2ccccc2)c1C(=O)OC(C)C)CCCC3 | 1.2 µM |
| CCOC(=O)c1c(C)nc2nc3c(c(N)c2c1-c1ccccc1)CCCC3 | 0.813 µM |
| CCOC(=O)c1c(C)nc2nc3c(c(N)c2c1-c1ccccc1)CCCCC3 | 20.9 µM |
| CCOC(=O)c1c(C)nc2nc3c(c(N)c2c1-c1ccc(OC)cc1)CCCC3 | 8.91 µM |
| CCOC(=O)c1c(C)nc2nc3c(c(N)c2c1-c1ccncc1)CCC3 | 8.13 µM |
| CCOC(=O)c1c(C)nc2nc3c(c(N)c2c1-c1ccncc1)CCCC3 | 1.41 µM |
| CCOC(=O)c1c(C)nc2nc3c(c(N)c2c1-c1ccccc1)CCC3 | 12 µM |
| CCOC(=O)c1c(C)nc2nc3c(c(N)c2c1-c1ccc(OC)cc1)CCC3 | 13.8 µM |
| CCOC(=O)c1c(C)nc2nc3c(c(N)c2c1-c1cccc(OC)c1)CCCC3 | 1.2 µM |
| CCOC(=O)c1c(C)nc2nc3c(c(N)c2c1-c1cccc([N+](=O)[O-])c1)CCCC3 | 0.933 µM |
| CCOC(=O)c1c(C)nc2nc3c(c(N)c2c1-c1ccncc1)CCCCC3 | 5.13 µM |
